Laboratory results taken from US10028992B2, “Methods of treating muscular dystrophy” (BOARD OF REGENTS OF THE NEVADA SYSTEM OF HIGHER EDUCATION …, priority 2012, dated 2018).
Like-named read-outs stand apart in the source and are kept apart here.

System: α7 integrin promoter
Assay: muscle cell-based assay: α7βgal+/− myoblasts/myotubes, LacZ reporter, β-galactosidase cleavage of FDG
Design: species or system mouse
Settings: for AC50 / EC50: Mus musculus; for AC50: read-out: Fit Log AC50 (converted); for EC50: read-out: Fit LogAC50 (converted)
Method: An α7 integrin null mouse was produced in which exon 1 of the gene encoding the α7 integrin was replaced by the LacZ reporter. In these mice, all the transcriptional regulatory elements of the α7 integrin promoter were retained, allowing β-galactosidase to report expression of 7 integrin. A primary myoblast cell line (designated α7βgal^+/−) isolated from 10 day old α7^+/− pups were analyzed for the ability of β-galactosidase to report α7 integrin expression. α7βgal^+/− myoblasts were differentiated and subjected to X-gal staining and western analysis (FIGS. 1A and 1B).
The activity of the α7 integrin promoter was measured by β-galactosidase cleavage of the non-fluorescent compound fluorescein di-β-D-galactopyranoside (FDG) to fluorescein. This assay was used to screen compound libraries to identify molecules that up-regulate α7 integrin expression in muscle.
Also evaluated was the effect of various isoforms of laminin and the ligand for α7β1 integrin on integrin expression. Positive hits were subjected to dose-response analysis, western analysis and a myostatin counterscreen (a negative regulator of muscle growth).

[1] = Table 12, log of AC50, given with negative sign, unit of AC50 not given
[2] = Table 12, fitted activity at zero concentration
[3] = Table 12 Compound data, concentration-response curve fit
[4] = given as log AC50 (negative values)
[5] = curve class number, key not given
[6] = curve fit, activity at zero concentration

EC50 [4] [µM]	Structure (SMILES)	AC50 [1] [µM]	Fit HillSlope (Table 12, curve fit)	Fit Zero Activity [%] [2] [%]	Fit Curve Class (Table 12, key not given)	Score [3]	Score (Table 12 compound data)	Fit Curve Class [5]	Fit HillSlope (curve fit)	Fit Zero Activity [%] [6] [%]	also measured
	O=C(Nc1cc(Br)ccc1O)C1CC(c2ccccc2Cl)=NO1 (stereo not shown) [Compound 108]	12.6	4.5045	2.0834	2.1	43					
	COc1ccc2oc(C[S+]([O-])c3ccccc3)c(C(=O)O)c2c1 (stereo not shown) [Compound 109]	12.6	4.9549	7.5839	2.1	43					
	CCCCS(=O)(=O)N1CCCC(C(=O)NCCc2ccccc2)C1 (stereo not shown) [Compound 111]	7.08	1.21	2.2101	2.1	43					
	O=[N+]([O-])c1ccc(Cl)cc1N/N=C/c1ccncc1 [Compound 112]		3.132	0.1229	2.2	43					Fit Infinite Activity [%] (Table 12, fitted activity at infinite concentration): 74.0416%; Fit Log AC50 [1]: −5.25
	NC(=O)c1cccnc1Oc1ccc(Cl)cc1Cl [Compound 113]	10	3.9295	−5.8907	2.1	43					
	Cc1ccc(NC(=O)C2CCCCC2C(=O)O)cc1C (stereo not shown) [Compound 114]	11.2	4.5045	−3.8223	2.1	43					
	CCOc1ccc2oc(C(=O)OCC(=O)NC(=O)NC)c(C)c2c1 [Compound 115]	7.08	1.8265	−4.8829	2.2	43					
	CN(C)S(=O)(=O)c1ccc(C(=O)Nc2nc3ccccc3[nH]2)cc1 [Compound 116]	8.91	1.5579	−9.8246	2.1	43					
	NC1=Nc2cccc3cccc1c23 [Compound 117]	7.94	1.6604	−0.2202	2.1	43					
	C/N=c1\scc(-c2ccc(OC)cc2)n1/N=C(\C)c1cccnc1 [Compound 118]	5.01	1.6924	−7.9176	2.2	43					
	O=C(COC(=O)Cn1cnc2ccccc21)Nc1cccc([N+](=O)[O-])c1 [Compound 119]	11.2	4.9549	−16.0213	2.1	43					
	Cc1ccc(CNc2ncnc(N)c2[N+](=O)[O-])cc1 [Compound 120]	10	0.8	11.933	2.1	43					
	CN(C)/C=N/c1nccc(-c2cccs2)n1 [Compound 121]	8.91	1.8851	5.7133	2.1	43					
	Cc1cc(N2CCOCC2)nc2ccc(N/C(S)=N/Cc3ccc4c(c3)OCO4)cc12 [Compound 122]	10	1.2475	0.5248	2.1	43					
8.91	COCCN1C=C(C(=O)OC)C(c2ccccc2Cl)C(C(=O)OC)=C1 [Compound 123]						43	2.1	1.3443	3.9836	
8.91	O=C(NCCCn1ccnc1)/C(=C/c1cccs1)NC(=O)c1ccco1 [Compound 124]						43	2.1	1.2475	−20.4393	
11.2	N=C(NOC(=O)COc1cc(Cl)c(Cl)cc1Cl)c1ccncc1 [Compound 125]						43	2.1	1.1705	−2.6906	
8.91	Cc1ccc(-c2csc(Nc3ccc(C(=O)O)cc3)[n+]2Cc2ccccc2)cc1.[Br-] [Compound 126]						43	2.1	1	0.673	
12.6	Cc1cc(-c2ccccc2)n2nc(N)nc2n1 [Compound 127]						43	2.1	4.5045	−18.9102	

EC50 [4] [µM]	Structure (SMILES)	AC50 [1] [µM]	Fit HillSlope (Table 12, curve fit)	Fit Zero Activity [%] [2] [%]	Fit Curve Class (Table 12, key not given)	Score [3]	Score (Table 12 compound data)	Fit Curve Class [5]	Fit HillSlope (curve fit)	Fit Zero Activity [%] [6] [%]	also measured
14.1	O=C(N/N=C/c1cn[nH]c1-c1ccc(F)cc1)c1ccncc1 [Compound 128]						43	2.1	4.5045	14.6735	
11.2	CC(/C=C(\O)c1ccccc1)=N\c1ccc(Br)c(Cl)c1 [Compound 130]						43	2.1	4.5045	7.8122	
14.1	Cc1ccc(NC(=O)COc2ccccc2CNC(C)(C)CC(C)(C)C)cc1 [Compound 131]						43	2.1	4.9549	8.7591	
	Cc1nc2c([nH]1)OC(N)=C(C#N)C21CCN(Cc2ccccc2)CC1 [Compound 132]										Fit Curve Class: 2.1; Fit HillSlope: 4.9549; Fit Zero Activity [%]: 12.8108%; Score: 43; EC50: 12.6 µM
10	O=C(CSc1nnc(C2CC2)n1C1CC1)c1cccs1 [Compound 133]						42	2.1	2.7202	−27.5656	
10	CSc1ncccc1C(=O)OCC(=O)c1cc(C)n(C)c1C [Compound 134]						42	2.1	4.4495	−22.5632	
10	CCc1c(C2(O)CCCCC2)[nH]c2ncccc12 [Compound 135]						42	2.1	4.9549	−29.3022	
10	O=C(Nc1ccc(S(=O)(=O)Nc2nccs2)cc1)c1ccccc1OC(F)F [Compound 137]						42	2.1	4.9549	−19.2861	
11.2	O=C1CCc2cc(S(=O)(=O)Nc3ccc(C(F)(F)F)cc3)cc3c2N1CC3 [Compound 138]						42	2.1	1.3437	−27.3652	
11.2	COc1ccccc1C(=O)NCC(=O)/N=N/c1c(O)n(C(C)C)c2ccccc12 [Compound 139]						42	2.1	4.5045	14.712	
10	Cn1ccc(C(=O)Nc2cccnc2Cl)n1 [Compound 140]						42	2.2	2.7868	−4.0391	
10	COC(=O)c1ccc(C2C(C(=O)c3cc4ccccc4o3)=C(O)C(=O)N2CCN2CCOCC2)cc1 (stereo not shown) [Compound 141]						42	2.1	4.9549	−17.8968	
8.91	COc1cc(NC(=O)C2C3C=CC(C3)C2C(=O)O)ccc1NC(=O)c1ccccc1 (stereo not shown) [Compound 142]						42	2.1	2.4064	−18.7775	
10	COCc1c(C(=O)N/N=C(\C)c2ccc(OCc3ccccc3)cc2)nnn1-c1nonc1N [Compound 143]						42	2.1	4.4495	4.6719	
12.6	O=C(Nc1ccc(N2CCN(C(=O)c3ccccc3F)CC2)cc1)c1cncc(Br)c1 [Compound 144]						42	2.1	4.095	9.7776	
10	COc1cc(NC(=O)CN(C)S(=O)(=O)c2ccc3c(c2)CC(C)N3C(C)=O)cc(OC)c1OC (stereo not shown) [Compound 145]						42	2.2	4.9549	0.4668	
10	CC(=O)c1ccc(N(C(=O)CNC(=O)c2ccco2)C(C(=O)NC2CCCC2)c2ccc(C)o2)cc1 (stereo not shown) [Compound 146]						42	2.1	4.9549		
11.2	Cc1nnc(NC(=O)CSc2nnc(CCNC(=O)c3ccccc3F)n2C)s1 [Compound 147]						42	2.1	2.0937	1.0531	
11.2	COc1ccc(CCNC(=O)Cn2nnc(C(=O)Nc3ccc(Br)cc3)c2N)cc1OC [Compound 148]						42	2.1	2.3531	−28.7719	
